The results in this text go back to patent US11033600B2, “Protease transition state inhibitor prodrugs” (priority 2016, dated 2021).

The target in data set [1] is norovirus 3CL protease (NV 3CLpro) (Norovirus, UniProt Q83883). Briefly: FRET protease assay (3CL protease), enzyme inhibition. It counts as biochemical. The procedure:
FRET protease assays. The FRET protease assay (3CL protease) was performed by preparing stock solutions of the substrate (Edans-DFHLQ/GP-Dabcyl, SEQ ID NO:1) and inhibitor in DMSO and diluting into assay buffer which was comprised of 20 mM HEPES buffer, pH 8, containing NaCl (200 mM), 0.4 mM EDTA, glycerol (60%), and 6 mM dithiothreitol (DTT). The protease was mixed with serial dilutions of each compound up to 100 μM or with DMSO in 25 μL of assay buffer and incubated at 37° C. for 30 min, followed by the addition of 25 μL of assay buffer containing substrate. Fluorescence readings were obtained using an excitation wavelength of 360 nm and an emission wavelength of 460 nm on a fluorescence microplate reader (FLx800; Biotec, Winoosk, Vt.) 1 h following the addition of substrate. Relative fluorescence units (RFU) were determined by subtracting background values (substrate-containing well without protease) from the raw fluorescence values. The dose-dependent FRET inhibition curves were fitted with a variable slope by using GraphPad Prism software (GraphPad, La Jolla, Calif.) in order to determine the IC50 values of the inhibitors.

Data set [2] deals with NV in replicon harboring cells (HG23 cells). Briefly: Cell-based assay: virus replication in NV replicon harboring cells (HG23 cells), qRT-PCR. Set-up: species or system norovirus (NV). The conditions noted are these: HG23 cells, 48 h. As to the method: The effects of each inhibitor on virus replication were examined against NV in the NV replicon harboring cells (HG23 cells). Briefly, confluent and semi-confluent HG23 cells were incubated with medium containing DMSO (<0.1%) or each compound (up to 200 uM) for 48 h. After the incubation, total RNA was extracted and viral genome was quantitated with real-time quantitative RT-PCR (qRT-PCR). The EC50 values were determined by GraphPadPrism software.
(In general: Replicon systems follow genome replication, usually without infectious particles.)

The conditions of data set [3]: IV, SC and PO routes, rats.
Setting [4] is: Table 1, ester prodrugs, average of at least two determinations, read-out: IC50 (50% inhibitory concentration in the enzyme assay).
[5] abbreviates: Table 1, ester prodrugs, read-out: EC50 (50% effective concentration in cell culture).
Where [6] appears, read: Table 2, carbamate prodrugs, read-out: IC50.
[7] abbreviates: Table 2, carbamate prodrugs, read-out: EC50.

SMILES strings stand for the structures. Like-named read-outs stand apart in the source and are kept apart here.

Chain of norovirus 3CL protease (NV 3CLpro) (Q83883 1101-1281): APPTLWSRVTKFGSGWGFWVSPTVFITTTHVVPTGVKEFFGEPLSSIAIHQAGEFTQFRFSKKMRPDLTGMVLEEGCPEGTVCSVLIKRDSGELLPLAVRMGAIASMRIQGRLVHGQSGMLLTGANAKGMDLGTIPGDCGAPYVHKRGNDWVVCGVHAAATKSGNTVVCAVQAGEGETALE

`CCCCCC(=O)OC([C@H](C[C@@H]1CCNC1=O)NC(=O)[C@H](CC1CCCCC1)NC(=O)OCc1cccc(Cl)c1)S(=O)(=O)O` (stereo partly drawn) [Compound 11, (5S,8S)-1-(3-Chlorophenyl)-5-(cyclohexylmethyl)-3,6,11-trioxo-8-(((S)-2-oxopyrrolidin-3-yl)methyl)-2,10-dioxa-4,7-diazahexadecane-9-sulfonate]: the IC50 in data set [1] (setting [4]) came out at 100 nM. Besides, the EC50 in data set [2] (setting [5]) is 15 nM. Moreover, in data set [3], the “Conversion of prodrug to the aldehyde form (compound 25) in rat plasma” value was “most of compound 11 was converted to the aldehyde form”.
In the case of `COC(=O)C(NC(=O)OC([C@H](C[C@@H]1CCNC1=O)NC(=O)[C@H](CC1CCCCC1)NC(=O)OCc1cccc(Cl)c1)S(=O)(=O)O)C(C)C` (stereo partly drawn) [Compound 22, (5 S,8S)-1-(3-Chlorophenyl)-5-(cyclohexylmethyl)-13-isopropyl-3,6,11,14-tetraoxo-8-(((S)-2-oxopyrrolidin-3-yl)methyl)-2,10,15-trioxa-4,7,12-triazahexadecane-9-sulfonate], in data set [1] (setting [6]), the IC50 is 500 nM. The EC50 in data set [2] (setting [7]) was 40 nM.
For the molecule `CCCCCCCC(=O)OC([C@H](C[C@@H]1CCNC1=O)NC(=O)[C@H](CC1CCCCC1)NC(=O)OCc1cccc(Cl)c1)S(=O)(=O)O` (stereo partly drawn) [Compound 12, (5 S, 8S)-1-(3-Chlorophenyl)-5-(cyclohexylmethyl)-3,6,11-trioxo-8-(((S)-2-oxopyrrolidin-3-yl)methyl)-2,10-dioxa-4,7-diazaoctadecane-9-sulfonate], the IC50 in data set [1] (setting [4]) came to 900 nM. The EC50 in data set [2] (setting [5]) was found to be 30 nM.
As to `COC(=O)C(C)NC(=O)OC([C@H](C[C@@H]1CCNC1=O)NC(=O)[C@H](CC1CCCCC1)NC(=O)OCc1ccccc1)S(=O)(=O)O` (stereo partly drawn) [Compound 23, (5 S,8S)-5-(Cyclohexylmethyl)-13-methyl-3,6,11,14-tetraoxo-8-(((S)-2-oxopyrrolidin-3-yl)methyl)-1-phenyl-2,10,15-trioxa-4,7,12-triazahexadecane-9-sulfonate], the IC50 in data set [1] (setting [6]) was determined as 10200 nM. The EC50 in data set [2] (setting [7]) amounted to 200 nM.
Regarding `CCC(=O)OC([C@H](C[C@@H]1CCNC1=O)NC(=O)[C@H](CC(C)C)NC(=O)OCc1ccccc1)S(=O)(=O)O` (stereo partly drawn) [Compound 2, (5S,8S)-5-Isobutyl-3,6,11-trioxo-8-(((S)-2-oxopyrrolidin-3-yl)methyl)-1-phenyl-2,10-dioxa-4,7-diazatridecane-9-sulfonate], the IC50 in data set [1] (setting [4]) is 7500 nM. Also, the EC50 in data set [2] (setting [5]) turned out to be 700 nM.
